{"source": "paper PMC6145916", "about": "“Interaction of mitochondrial fission factor with dynamin related protein 1 governs physiological mitochondrial function in vivo” (Scientific Reports, 2018)", "key": {"[1]": {"tested_on": "wild-type MEFs", "assay": "Mitochondrial membrane potential (TMRM), WT MEFs", "type": "cell-based, mouse", "details": "20 µM P259 overnight, vs no peptide; 3 independent experiments, three technical replicates; ** p <0.01", "experimental": "Data are of 3 independent experiments with the whiskers calculated by the Turkey method. e. […]\ndetermined by an unpaired, two -tailed t test). g. […]\ncontrol (no peptide treatment). Data are mean ± s.e. from 3 independent experiments. […]\nand without phenol red. […] After incubation\nHEPES, and without phenol red. […]\nepifluorescence microscope with a 10X objective (Keyence). The Cy5 filter (Keyence) was used to autofocus on the mitochondria plane. […]\nMitochondrial membrane potential determination\nAfter treatment, cells were washed with\nCells were incubated in a 37\n°C incubator for 30 minutes. […]"}, "[2]": {"tested_on": "Mfn2", "assay": "Binding of recombinant Mfn2 to surface-conjugated P259 (AGILE-R100 graphene sensor)", "parameters": "species or system human", "details": "P259 surface-conjugated (50 nM), 100 nM protein, RIPA buffer pH 8.0; n = 3, with 3 replicates", "text": "Figure 1 Rational peptide design identifies a novel inhibitor of the Mff-Drp1 protein-protein interaction. (a) A scheme of the rationale behind the inhibitor design. […] Surface and ribbon diagrams of Drp1 structure (PDB, 4BEJ) with the GTPase, bundle signaling element (BSE), and stalk domains highlighted. (d) A heatmap representing sequence conservation of human proteins that contain a region similar to P259. Sequence conservation corresponds to the number of residues similar/identical to P259 from each sequence. […] The obtained graph is of the mean standardized response and ± s.e. as a function of time for n = 3 individual experiments, with 3 technical replicates each. […] Represented Western blot is cropped from a full blot shown in the Expanded Western Blots section of the Supplementary Information. (h) Relative GTPase activity of recombinant Drp1 in the presence of 1 µM of peptide (n = 3–5). Data are mean ± s.e. from 3–5 independent experiments per condition.\nDrp1 and Mff. Utilizing BioPython, a pairwise alignment was performed between each ortholog […]\nbrief, an automated microwave peptide synthesizer (Liberty, CEM Corporation) was used to perform solid phase peptide synthesis by a series of coupling of fluorenylmethoxycarbonyl (Fmoc)-protected amino acids and hydroxybenz otriazol (HOBt) […] reaction steps. […]"}}, "note": "Where no end group is shown, it is not given here.", "data": [{"substance": "YGRKKRRQRRRGSGIIQLPEIVVV-NH2 (C-terminus assumed) [P259]", "values": [{"measurement": "mitochondrial membrane potential, WT MEFs", "setting": "[1]", "result": "decreases"}, {"measurement": "binding to Mfn2", "setting": "[2]", "result": "only negligible binding"}]}]}
